{
  "source": "patent US6486097B2",
  "about": "“Herbicidal fatty acid and maleic hydrazide salt compositions” (W. Neudorff GmbH KG, priority 2000, dated 2002)",
  "key": {"[1]": {"system": "dandelions", "assay": "Field dandelion test with added alcohol and gum (Example 6)", "type": "in vivo", "details": "0.2 L/m^2, re-sprayed after 14 days, 10 days after second spray", "description": "This test compared the herbicidal activity of NH4C9, NH4MH and (NH4C9+NH4MH) with added alcohol and gums on dandelion mortality. The gum Kelzan S (Merck & Co., Inc.) at 0.08% was used as a thickener.\nThis test also investigated the effect of adding NH4MH to emulsified C9 acid. The emulsified C9 acid solution was made by adding 3.5 g of C9 acid with 1.0 g of Tween 80 and 95.5 g water (no ammonium hydroxide was added). For the C9 acid+NH4MH solution, 13 g of water was replaced by 13 g of the 6.9% NH4MH stock solution.\nEvery solution was sprayed onto 16 field-grown, medium-sized dandelions. All of the dandelions had leaves longer than 10 cm. The dandelions were sprayed at a rate of 0.2 L/m^2. All plants were re-sprayed 14 days after the first spray. The number of dead plants was assessed 10 days after the second spray."}, "[2]": {"system": "dandelions", "assay": "Potted dandelion test of NH4C9 and NH4C11:1 with and without MH (Example 7)", "type": "in vivo", "details": "for Number of Dead Plants of 15 Total: 0.5 L/m^2, sprayed twice 8 days apart, 8 days after second spray; for Contact herbicidal activity (in words): without NH4MH, treated plants were able to re-grow", "from_the_text": "Five-month-old potted dandelions were sprayed with solutions of ammonium fatty acid soaps in combination with NH4MH. The solutions contained 3.9% ammonium fatty acid soaps and 1.15% NH4MH. The plants were sprayed at a rate of 0.5 L/m^2. The plants were sprayed twice, with 8 days between sprays. Final observations were taken 8 days after the second spray. Fifteen plants were used per treatment."}, "[3]": {"system": "dandelions", "assay": "Field dandelion test (Example 2)", "type": "in vivo", "details": "0.2 L/m^2, re-sprayed after 7 days, 38 days after first spray", "description": "This test compared the herbicidal activity of NH4C9, NH4MH, and NH4C9+NH4MH on dandelion mortality. This test also investigated the effect of adding isopropyl alcohol (IPA) to NH4C9+NH4MH. Nine dandelions were grown in 0.5 m^2 areas of soil in the field. At the time of spraying the dandelions were very large, with leaves longer than 25 cm. Every treatment was sprayed onto 4 areas of soil. Every 0.5 m^2 plot received 100 ml of solution (0.2 L/m^2). All of the areas were re-sprayed 7 days after the first spray. The number of dead plants was assessed 38 days after the first spray.\nRound Up (35.6% glyphosate N-(phosphonomethyl) glycine) produced by Monsanto, Killex (9.5% 2,4-D (2,4-dichlorophenoxy) acetic acid, Mecoprop (5% 2-(4-chloro-2-methylphenoxy)) propanoic acid and 0.9% Dicamba (3,6-dichloro-o-anisic acid) by Green Cross were diluted as per label instructions and included as standards."}, "[4]": {"system": "dandelions", "assay": "Dandelion test of NH4C9 with a range of NH4MH concentrations (Example 3)", "type": "in vivo", "details": "sprayed to wetness, 36 days after spraying", "description": "This test examined NH4C9 combined with a range of NH4MH concentrations. All of the NH4C9 treatments contained 3.9% NH4C9. All of the solutions were sprayed to wetness onto 10 dandelions. The number of dead plants was assessed 36 days after spraying."}, "[5]": {"system": "dandelions", "assay": "Greenhouse dandelion test with a gum (Example 4), mortality", "type": "in vivo", "details": "pH 7.38", "from_the_text": "(§1) This test studied the effect of thickening NH4C9+NH4MH solutions on plant mortality. The solutions were thickened by adding 0.5 g of the xanthan gum Rhodopol 23 suspended in 3.0 g propylene glycol to 96.5 g solution. The pH values of the test solutions were adjusted to 7.38."}, "[6]": {"assay": "Viscosity of test solutions (Example 4)", "type": "physicochemical", "details": "pH 7.38", "from_the_text": "as §1"}, "[7]": {"system": "dandelions", "assay": "Greenhouse dandelion test of TopGun with and without MH (Example 5)", "type": "in vivo", "details": "NH4MH 1.15%; sprayed to run-off; 15 days after spraying", "description": "TopGun is a proprietary emulsified formulation containing 18% C9 (nonanoic) acid present as free acid. TopGun was diluted to 1.8% C9 acid. Each solution was sprayed to run-off onto ten 20 cm diameter dandelions grown in the greenhouse. The number of dead plants was assessed 15 days after spraying."}, "[8]": {"details": "same number of moles of NH4MH and MH", "description": "The compositions of the solutions are listed below. Note that slightly more NH4MH was added than MH acid, as NH4MH has a higher molecular weight. The same number of moles of NH4MH and MH were used.\nViscosity is measured in centipoise (milli pascal seconds). Water has a viscosity of 1.0."}, "[9]": {"details": "C9 acid 3.5% emulsified with Tween 80"}},
  "data": [
    {"smiles": "CCCCCCCCC(=O)O", "note": "[C9 acid, Nonanoic acid]", "values": [
      {"measurement": "Dead Plants (#/16)", "setting": "[1]; [9]", "value": "3 #/16"},
      {"measurement": "Dead Plants (%)", "setting": "[1]; [9]", "value": 19, "unit": "%"}
    ]},
    {"smiles": "O=c1ccc(=O)[nH][nH]1", "note": "[MH, 1,2-dihydro-3,6-pyridazine-dione]", "values": [
      {"measurement": "Number of Dead Plants of 15 Total", "setting": "[2]; MH only 1%", "value": 0}
    ]},
    {"smiles": "CCCCCCCCC(=O)O.N", "note": "[NH4C9, ammonium salt of nonanoic acid]", "values": [
      {"measurement": "Dead Plants (#/36)", "setting": "[3]; NH4C9 3.9%", "value": "0 #/36"},
      {"measurement": "Dead Plants (%)", "setting": "[3]; NH4C9 3.9%", "value": 0, "unit": "%"},
      {"measurement": "Mortality (#/10 plants)", "setting": "[4]; NH4C9 3.9%", "value": "0 #/10 plants"},
      {"measurement": "Mortality (#/10)", "setting": "[5]; NH4C9 2.2%", "value": "1 #/10"},
      {"measurement": "Viscosity (Cps)", "setting": "[6]; NH4C9 2.2%", "value": 1, "unit": "Cps"},
      {"measurement": "Dead Plants (#/16)", "setting": "[1]; NH4C9 3.9%", "value": "2 #/16"},
      {"measurement": "Dead Plants (%)", "setting": "[1]; NH4C9 3.9%", "value": 13, "unit": "%"},
      {"measurement": "Number of Dead Plants of 15 Total", "setting": "[2]; NH4C9 3.9%", "value": 1},
      {"measurement": "Contact herbicidal activity (in words)", "setting": "[2]", "value": "good contact herbicides"}
    ]},
    {"smiles": "C=CCCCCCCCCC(=O)O.N", "note": "[NH4C11:1]", "values": [
      {"measurement": "Number of Dead Plants of 15 Total", "setting": "[2]; NH4C11:1 3.9%", "value": 2},
      {"measurement": "Contact herbicidal activity (in words)", "setting": "[2]", "value": "good contact herbicides"}
    ]},
    {"smiles": "N.O=c1ccc(O)n[nH]1", "note": "[NH4MH, ammonium salt of maleic hydrazide]", "values": [
      {"measurement": "Dead Plants (#/36)", "setting": "[3]; NH4MH 1.15%", "value": "1 #/36"},
      {"measurement": "Dead Plants (%)", "setting": "[3]; NH4MH 1.15%", "value": 3, "unit": "%"},
      {"measurement": "Mortality (#/10 plants)", "setting": "[4]; NH4MH 1.15%", "value": "0 #/10 plants"},
      {"measurement": "Mortality (#/10)", "setting": "[5]; NH4MH 1.15%", "value": "0 #/10"},
      {"measurement": "Viscosity (Cps)", "setting": "[6]; NH4MH 1.15%", "value": 1, "unit": "Cps"},
      {"measurement": "Number of Dead Plants (#/10 Plants)", "setting": "[7]", "value": "0 #/10 Plants"},
      {"measurement": "Dead Plants (#/16)", "setting": "[1]; NH4MH 0.9% only", "value": "0 #/16"},
      {"measurement": "Dead Plants (%)", "setting": "[1]; NH4MH 0.9% only", "value": 0, "unit": "%"},
      {"measurement": "Solubility in NH4C9 concentrate compared with MH", "setting": "[8]", "value": "superior solubility"}
    ]}
  ]
}
